From patent US20170042151A1, “SAFENED HERBICIDAL COMPOSITIONS COMPRISING PYRIDINE CARBOXYLIC ACIDS” (Dow AgroSciences LLC, priority 2015, published 2017) come the findings set out here.

What all share (format): in vivo
Data set [1] has as its system TRZAW = Triticum aestivum (winter wheat). Put plainly: Greenhouse post-emergence phytotoxicity (% visual injury) on wheat. How it is done:
(§1) In addition, the efficacy of the herbicidal composition on wild mustard (SINAR), wild chamomile (MATCH), wild pansy (VIOTR), shepherd's purse ([…]), pigweed (AMARE), and Canada thistle (CIRAR) was evaluated. […] When required to ensure good germination and healthy plants, a fungicide treatment and/or other chemical or physical treatment was applied. The plants were grown for 7-36 days (d) in a greenhouse with an approximate 14-hour (h) photoperiod which was maintained at about 18° C. during the day and 17° C. during the night. Nutrients and water were added on a regular basis and supplemental lighting was provided with overhead metal halide 1000-Watt lamps as necessary. The plants were employed for testing when they reached the second or third true leaf stage. Weighed amounts of technical material were dissolved in a volume of 97:3 volume per volume (v/v) acetone/dimethyl sulfoxide (DMSO) to stock solutions. […] Stock solutions of the safeners were prepared following the same procedure. […] Control plants were sprayed in the same manner with the solvent blank. The treated plants and control plants were placed in a greenhouse as described above and watered by sub-irrigation to prevent wash-off of the test compounds. […] Colby's equation was used to determine the herbicidal effects expected from the mixtures.

For data set [2], the system named is HORVS = Hordeum vulgare (spring barley). The experiment in a line: Greenhouse post-emergence phytotoxicity (% visual injury) on spring barley. The procedure:
as §1

For data set [3], the system named is CAPBP = Capsella bursa-pastoris (shepherd's purse). The experiment in a line: Greenhouse post-emergence efficacy (% visual injury) on shepherd's purse. The conditions noted are these: 20-22 d. The procedure: (§2) The herbicide of formula I-G-A was combined with isoxadifen-ethyl or mefenpyr-diethyl, and applied to spring wheat (TRZAS) and spring barley (HORVS) and the phytotoxicity of the herbicidal composition was measured. In addition, the efficacy of the herbicidal composition on wild mustard (SINAR), wild chamomile (MATCH), wild pansy (VIOTR), shepherd's purse (CAPBP), kochia (KCHSC), lambsquarters (CHEAL), pigweed (AMARE), and Canada thistle (CIRAR) was evaluated. The results for herbicide I-G-A with isoxadifen-ethyl and mefenpyr-diethyl are summarized in Table 7 and Table 8, respectively.
(§3) Seeds of the desired test plant species were planted in Sun Gro MetroMix® 360 planting mixture, which typically has a pH of 6.0 to 6.8 and an organic matter content of about 30 percent, in plastic pots with a surface area of 103.2 square centimeters (cm^2). When required to ensure good germination and healthy plants, a fungicide treatment and/or other chemical or physical treatment was applied. The plants were grown for 7-36 days (d) in a greenhouse with an approximate 14-hour (h) photoperiod which was maintained at about 18° C. during the day and 17° C. during the night. Nutrients and water were added on a regular basis and supplemental lighting was provided with overhead metal halide 1000-Watt lamps as necessary. The plants were employed for testing when they reached the second or third true leaf stage.
(§4) Weighed amounts of technical material were dissolved in a volume of 97:3 volume per volume (v/v) acetone/dimethyl sulfoxide (DMSO) to stock solutions. […] Compound requirements are based upon a 12 milliliter (mL) application volume at a rate of 187 liters per hectare (L/ha). Stock solutions of the safeners were prepared following the same procedure. Spray solutions of the safeners and experimental compound mixtures were prepared by adding the stock solutions to the appropriate amount of dilution solution to form a 12 mL spray solution in two-way combinations. Formulated compounds were applied to the plant material with an overhead Mandel track sprayer equipped with 8002E nozzles calibrated to deliver 187 L/ha over an application area of 0.503 square meters (m^2) at a spray height of 18 inches (43 centimeters (cm)) above average plant canopy. Control plants were sprayed in the same manner with the solvent blank.
(§5) The treated plants and control plants were placed in a greenhouse as described above and watered by sub-irrigation to prevent wash-off of the test compounds. After 20-22 d, the condition of the test plants as compared with that of the control plants was determined visually and scored on a scale of 0 to 100 percent where 0 corresponds to no injury and 100 corresponds to complete kill. Colby's equation was used to determine the herbicidal effects expected from the mixtures.

Data set [4] deals with CIRAR = Cirsium arvense (Canada thistle). Put plainly: Greenhouse post-emergence efficacy (% visual injury) on Canada thistle. To be noted: 20-22 d. The procedure: as §2, §3, §4, §5
The subject of data set [5] is MATCH = Matricaria recutita (wild chamomile). The experiment in a line: Greenhouse post-emergence efficacy (% visual injury) on wild chamomile. The conditions noted are these: 20-22 d. How it is done: as §2, §3, §4, §5
Data set [6] has as its system SINAR = Sinapis arvensis (wild mustard). Put plainly: Greenhouse post-emergence efficacy (% visual injury) on wild mustard. The conditions noted are these: 20-22 d. The procedure: as §2, §3, §4, §5
For data set [7], the system named is KCHSC = Kochia scoparia (kochia). Put plainly: Greenhouse post-emergence efficacy (% visual injury) on kochia. The conditions noted are these: 20-22 d. How it is done: as §2, §3, §4, §5
Data set [8] relates to AMARE = Amaranthus retroflexus (pigweed). The experiment in a line: Greenhouse post-emergence efficacy (% visual injury) on pigweed. The conditions noted are these: 20-22 d. How it is done:
as §2, §3, §4, §5

For data set [9], the system named is VIOTR = Viola tricolor (wild pansy). Put plainly: Greenhouse post-emergence efficacy (% visual injury) on wild pansy. To be noted: 20-22 d. How it is done:
as §2, §3, §4, §5

For data set [10], the system named is CHEAL = Chenopodium album (lambsquarters). Put plainly: Greenhouse post-emergence efficacy (% visual injury) on lambsquarters. The conditions noted are these: 20-22 d. The procedure: as §2, §3, §4, §5
Setting [11] is: safener 20 g ai/ha alone, 20-22 d.
The mark [12] stands for this setting: safener 40 g ai/ha alone, 20-22 d.
Where [13] appears, read: safener 80 g ai/ha alone, 20-22 d.
Setting [14] is: herbicide 20 g ae/ha alone, 20-22 d.

For `CC1COc2ccccc2N1C(=O)C(Cl)Cl` (racemic) [benoxacor, (±)-4-(dichloroacetyl)-3,4-dihydro-3-methyl-2H-1,4-benzoxazine], the “Effect (% visual injury) TRZAW Obs” value in data set [1] (in vivo) was 0%. For the same molecule, the “Effect (% visual injury) HORVS Obs” value in data set [2] (in vivo) was found to be 0%.
With `CCOC(=O)C1=NN(c2ccc(Cl)cc2Cl)C(C)(C(=O)OCC)C1` (racemic) [mefenpyr-diethyl, (RS)-1-(2,4-dichlorophenyl)-5-methyl-2-pyrazoline-3,5-dicarboxylate], the “Effect (% visual injury) CAPBP Obs” value in data set [3] (safener 20 g ai/ha alone), in data set [3] (safener 40 g ai/ha alone) and in data set [3] (safener 80 g ai/ha alone) was 0% each time. In addition, the “Effect (% visual injury) CIRAR Obs” value in data set [4] (safener 20 g ai/ha alone), in data set [4] (safener 40 g ai/ha alone) and in [4] (safener 80 g ai/ha alone) was 0% each time. Further, the “Effect (% visual injury) MATCH Obs” value in data set [5] (safener 20 g ai/ha alone), in data set [5] (safener 40 g ai/ha alone) and in [5] (safener 80 g ai/ha alone) was 0% in each case. Further, the “Effect (% visual injury) SINAR Obs” value in [6] (safener 20 g ai/ha alone), in [6] (safener 40 g ai/ha alone) and in [6] (safener 80 g ai/ha alone) was 0% in each case. For the same molecule, the “Effect (% visual injury) TRZAW Obs” value in data set [1] (setting [11]), in data set [1] (setting [12]) and in [1] (setting [13]) was 0% in each case. Also, the “Effect (% visual injury) KCHSC Obs” value in data set [7] (safener 20 g ai/ha alone), in data set [7] (safener 40 g ai/ha alone) and in data set [7] (safener 80 g ai/ha alone) was 0% in each case. Also, the “Effect (% visual injury) AMARE Obs” value in [8] (safener 20 g ai/ha alone), in data set [8] (safener 40 g ai/ha alone) and in data set [8] (safener 80 g ai/ha alone) was 0% in each case. Besides, the “Effect (% visual injury) VIOTR Obs” value in [9] (safener 20 g ai/ha alone), in data set [9] (safener 40 g ai/ha alone) and in data set [9] (safener 80 g ai/ha alone) was 0% in each case. The “Effect (% visual injury) HORVS Obs” value in data set [2] (setting [11]), in [2] (setting [12]) and in [2] (setting [13]) was 0% each time. Further, the “Effect (% visual injury) CHEAL Obs” value in [10] (safener 20 g ai/ha alone), in data set [10] (safener 40 g ai/ha alone) and in data set [10] (safener 80 g ai/ha alone) was 0% throughout.
Regarding `NC(=O)NS(=O)(=O)c1ccccc1Cl` [2-CBSU, N-(aminocarbonyl)-2-chlorobenzenesulfonamide], the “Effect (% visual injury) TRZAW Obs” value in data set [1] (in vivo) was 0%. Moreover, the “Effect (% visual injury) HORVS Obs” value in [2] (in vivo) was determined as 0%.
For `CCc1nc(C(=O)O)c(Cl)c(N)c1F` [I-G-A], the “Effect (% visual injury) CAPBP Obs” value in [3] (herbicide 20 g ae/ha alone) is 100%. Moreover, the “Effect (% visual injury) CIRAR Obs” value in data set [4] (herbicide 20 g ae/ha alone) was found to be 80%. In data set [5] (herbicide 20 g ae/ha alone), the “Effect (% visual injury) MATCH Obs” value is given as 80%. In data set [6] (herbicide 20 g ae/ha alone), the “Effect (% visual injury) SINAR Obs” value stood at 97%. Also, in data set [1] (setting [14]), the “Effect (% visual injury) TRZAW Obs” value came out at 25%. In addition, the “Effect (% visual injury) KCHSC Obs” value in data set [7] (herbicide 20 g ae/ha alone) is 20%. Further, in data set [8] (herbicide 20 g ae/ha alone), the “Effect (% visual injury) AMARE Obs” value is recorded as 20%. Further, in [9] (herbicide 20 g ae/ha alone), the “Effect (% visual injury) VIOTR Obs” value is 60%. The “Effect (% visual injury) HORVS Obs” value in data set [2] (setting [14]) was determined as 13%. Besides, the “Effect (% visual injury) CHEAL Obs” value in data set [10] (herbicide 20 g ae/ha alone) is on record as 95%.
On to `C=CCN(CC=C)C(=O)C(Cl)Cl` [dichlormid, N,N-diallyl-2,2-dichloroacetamide], for which the “Effect (% visual injury) TRZAW Obs” value in data set [1] (setting [11]), in data set [1] (setting [12]) and in data set [1] (setting [13]) was 0% throughout. The “Effect (% visual injury) HORVS Obs” value in data set [2] (setting [11]), in data set [2] (setting [12]) and in [2] (setting [13]) was 0% throughout.
Turning to `O=C(O)c1nc(C(Cl)(Cl)Cl)n(-c2ccc(Cl)cc2Cl)n1` [fenchlorazole, 1-(2,4-dichlorophenyl)-5-(trichloromethyl)-1H-1,2,4-triazole-3-carboxylic acid], the “Effect (% visual injury) TRZAW Obs” value in data set [1] (setting [11]), in [1] (setting [12]) and in [1] (setting [13]) was 0% throughout. The “Effect (% visual injury) HORVS Obs” value in data set [2] (setting [11]), in data set [2] (setting [12]) and in data set [2] (setting [13]) was 0% throughout.
Consider `Clc1cc(Cl)nc(-c2ccccc2)n1` [fenclorim, 4,6-dichloro-2-phenylpyrimidine], for which the “Effect (% visual injury) TRZAW Obs” value in [1] (in vivo) is listed as 0%. Also, the “Effect (% visual injury) HORVS Obs” value in data set [2] (in vivo) is recorded as 0%.
Turning to `O=C1OC(=O)c2cccc3cccc1c23` [naphthalic anhydride], the “Effect (% visual injury) TRZAW Obs” value in data set [1] (in vivo) was 0%. Also, the “Effect (% visual injury) HORVS Obs” value in [2] (in vivo) is recorded as 0%.
